The source of these data is patent US5712417A, “Inhibitors of retroviral proteases” (Abbott Laboratories, priority 1989, dated 1998).

The structures appear in SMILES notation. Counter-ions that a name gives are not always drawn. Like-named read-outs stand apart in the source and are kept apart here. Where a SMILES comes first, the peptide text is derived from it. [ ]: non-standard residue; d: D form. The star is where a group is joined. Sta = CC(C)C[C@H](N)[C@@H](O)CC(=O)O; Isovaleryl = CC(C)CC(=O)*

Data set [1] has as its system HIV protease. The following applies: literature (Katoh et al., Nature 1987); cited from earlier work.
Data set [2] has as its system core protein p24. The following applies: high doses; cited from earlier work.
For data set [3] the following is noted: in many cases require discontinuation of the therapy; cited from earlier work.
Data set [4] relates to HIV. The following applies: first strains of HIV; cited from earlier work.
The target in data set [5] is T1, HIV protease (Human immunodeficiency virus type 1 group M subtype B, UniProt P04585).
T1 construct: HIV protease consists of 99 amino acids and is evidently split off by itself from the pol polyprotein
The experiment in a line: Inhibition of HIV protease (cleavage of H-Ser-Phe-Asn-Phe-Opr-Gln-Ile-OH, HPLC). Type of data set: biochemical. Particulars: read-out: IC50. In outline:
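Substrate H-Ser-Phe-Asn-Phe-Opr-Gln-Ile-OH in MGTE buffer (MES, glycerol, Triton X-100, PMSF, pH 6) preincubated with inhibitor at 37 °C for 5-10 min, then reacted with protease at 35 °C for 2 h. RP18 HPLC at 215 nm; tetrapeptide fraction gives cleavage rate, IC50 where rate is halved.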

Where [6] appears, read: inhibitor concentration at which the cleavage rate is halved, pH 6, 2 hours.

For the compound `CC(C)CC(=O)N[C@H](C(=O)N[C@H](C(=O)N[C@@H](CC(C)C)[C@@H](O)CC(=O)N[C@@H](C)C(=O)N[C@@H](CC(C)C)[C@@H](O)CC(=O)O)C(C)C)C(C)C` [Pepstatin A] (Isovaleryl-VV[Sta]A[Sta]-OH), the half-maximal inhibitory concentration (IC50) in data set [1] was […]. Moreover, the “reducing the formation of the core protein p24” value in data set [2] is reported as “capable of reducing the formation of the core protein p24”.
Regarding `Cc1cn([C@H]2C[C@H](N=[N+]=[N-])[C@@H](CO)O2)c(=O)[nH]c1=O` [Zidovudine (AZT)], the toxic side effects entry in data set [3] is recorded as “serious toxic side effects”. Also, the “sensitivity of HIV strains toward AZT” value in data set [4] is recorded as “significantly lower sensitivity”.
As to `CC(C)[C@H](NC(=O)C(Cc1ccccc1)CS(=O)(=O)Cc1ccc(Cl)cc1)C(=O)N[C@@H](Cc1ccccc1)[C@@H](O)[C@H](O)[C@H](Cc1ccccc1)NC(=O)[C@@H](NC(=O)C(Cc1ccccc1)CS(=O)(=O)Cc1ccc(Cl)cc1)C(C)C` (stereo partly drawn) [Example 123, N,N'-bis-<(2-(p-Chlorobenzylsulfonylmethyl)-3-phenyl-propionyl)-L-valyl>-2S,5S-diamino-1,6-diphenylhexane-3R,4R-diol], the IC50 in data set [5] (setting [6]) was 32 nM.
For the compound `CC(C)[C@H](NC(=O)[C@@H](Cc1cccs1)CS(=O)(=O)C(C)(C)C)C(=O)N[C@@H](Cc1ccccc1)[C@@H](O)[C@H](O)[C@H](Cc1ccccc1)NC(=O)[C@@H](NC(=O)[C@@H](Cc1cccs1)CS(=O)(=O)C(C)(C)C)C(C)C` [Example 54, N,N,-bis-<(2R-(1,1-Dimethylethylsulfonylmethyl)-3-(2-thienyl)-propionyl)-L-valyl>-2S,5S-diamino-1,6-diphenyl-hexane-3R,4R-diol], the IC50 in data set [5] (setting [6]) was found to be 260 nM.
As for `CC(C)[C@H](NC(=O)[C@@H]1Cc2ccccc2CN1)C(=O)N[C@@H](Cc1ccccc1)[C@@H](O)[C@H](O)[C@H](Cc1ccccc1)NC(=O)[C@@H](NC(=O)[C@@H]1Cc2ccccc2CN1)C(C)C` [Example 120, N,N'-bis-<L-1,2,3,4-Tetrahydroisoquinolin-3-ylcarbonyl-L-valyl>-2S,5S-diamino-1,6-diphenylhexane-3R,4R-diol diacetate], the half-maximal inhibitory concentration (IC50) in data set [5] (setting [6]) came out at 2 nM.
Turning to `CC(C)[C@H](NC(=O)[C@@H](N)Cc1ccccc1)C(=O)N[C@H](Cc1ccccc1)[C@@H](O)[C@H](O)[C@@H](Cc1ccccc1)NC(=O)[C@@H](NC(=O)[C@@H](N)Cc1ccccc1)C(C)C` [Example 30, N,N'-bis-(L-Phenylalanyl-L-valyl)-2R,5R-diamino-1,6-diphenylhexane-3R,4R-diol dihydrochloride], in data set [5] (setting [6]), the concentration for half-maximal inhibition (IC50) was 30 nM.
Same read-out and setting: as for `CC(C)[C@H](NC(=O)C(Cc1ccccc1)C[S+]([O-])Cc1ccccc1)C(=O)N[C@@H](Cc1ccccc1)[C@@H](O)[C@H](O)[C@H](Cc1ccccc1)NC(=O)[C@@H](NC(=O)C(Cc1ccccc1)C[S+]([O-])Cc1ccccc1)C(C)C` (stereo partly drawn) [Example 121, N,N'-bis-<(2-(Benzylsulfinylmethyl)-3-phenylpropionyl)-L-valyl>-2S,5S-diamino-1,6-diphenylhexane-3R,4R-diol], the figure is 22 nM; as for `CC(C)[C@H](NC(=O)[C@@H](N)Cc1ccccc1)C(=O)N[C@@H](CC1CCCCC1)[C@H](O)[C@@H](O)[C@H](CC1CCCCC1)NC(=O)[C@@H](NC(=O)[C@@H](N)Cc1ccccc1)C(C)C` [Example 43, N,N'-bis-[L-Phenylalanyl-L-valyl]-2S,5S-diamino-1,6-dicyclohexylhexane-3S,4S-diol dihydrochloride], 1 nM.
Take `CC(C)(C)OC(=O)N[C@@H](Cc1ccccc1)[C@H](O)[C@H](O)[C@H](Cc1ccccc1)NC(=O)OC(C)(C)C` [Example 5, N,N'-bis-(tert.-Butoxycarbonyl)-2S,5S-diamino-1,6-diphenylhexane-3R,4S-diol]: the half-inhibitory concentration (IC50) in data set [5] was 3600 nM.
As to `CC(C)C[C@H](NC(=O)OC(C)(C)C)C(=O)N[C@H](C(=O)N[C@@H](Cc1ccccc1)[C@H](O)[C@@H](O)[C@H](Cc1ccccc1)NC(=O)[C@@H](NC(=O)[C@H](CC(C)C)NC(=O)OC(C)(C)C)C(C)C)C(C)C` [Example 88, N,N'-bis-<tert.-Butoxycarbonyl-L-leucyl-L-valyl>-2S,5S-diamino-1,6-diphenylhexane-3S,4S-diol], in data set [5] (setting [6]), the concentration for half-maximal inhibition (IC50) was 1000 nM.
For the compound `CCCCC[C@H](NC(=O)[C@@H](NC(=O)[C@@H](N)Cc1ccccc1)C(C)C)[C@@H](O)[C@H](O)[C@H](CCCCC)NC(=O)[C@@H](NC(=O)[C@@H](N)Cc1ccccc1)C(C)C` [Example 151, N,N'-bis-(L-Phenylalanyl-L-valyl )-6S, 9S-diamino-tetradecane-7R, 8R-diol dihydrochloride], the IC50 in data set [5] (setting [6]) was found to be 4 nM.
As to `CC(C)(C)OC(=O)N[C@@H](CC1CCCCC1)[C@H](O)[C@H](O)[C@H](CC1CCCCC1)NC(=O)OC(C)(C)C` [Example 48, N,N'-bis-(tert.-Butoxycarbonyl)-2S, 5S-diamino-1,6-dicyclohexylhexane-3R, 4S-diol], in data set [5] (setting [6]), the half-maximal inhibitory concentration (IC50) worked out at 80000 nM.
`CC(C)[C@H](NC(=O)[C@@H](Cc1ccccc1)NC(=O)OC(C)(C)C)C(=O)N[C@@H](Cc1ccccc1)[C@H](O)[C@@H](O)[C@H](Cc1ccccc1)NC(=O)[C@@H](NC(=O)[C@@H](Cc1ccccc1)NC(=O)OC(C)(C)C)C(C)C` [Example 63, N,N'-bis-<tert.-Butoxycarbonyl-D-phenylalanyl-L-valyl>-2S,5S-diamino-1,6-diphenylhexane-3S,4S-diol]: the IC50 in data set [5] (setting [6]) amounted to 6.5 nM.
The same measure, in the same setting: as for `CC(C)[C@H](NC(=O)[C@@H]1Cc2ccccc2CN1C(=O)OCc1ccccc1)C(=O)N[C@@H](Cc1ccccc1)[C@@H](O)[C@H](O)[C@H](Cc1ccccc1)NC(=O)[C@@H](NC(=O)[C@@H]1Cc2ccccc2CN1C(=O)OCc1ccccc1)C(C)C` [Example 119, N,N'-bis-<Benzyloxycarbonyl-L-1,2,3,4-tetrahydro-isoquinolin-3-ylcarbonyl-L-valyl>-2S, 5S-diamino-1,6-diphenylhexane-3R, 4R-diol], the figure is 10000 nM.

For orientation: IC50 means the midpoint of a concentration-inhibition curve.
